Tested on: PDGF receptor on human foreskin fibroblasts / NIH/3T3 cells
Test: Inhibition assay: 3H-thymidine incorporation in cells stimulated with PDGF dimer
Format: cell-based
Description: One method includes the determination of ^3 H-thymidine incorporation in a cell which normally is induced to proliferate in the presence of PDGF, but which simultaneously is exposed to the prospective antagonist and to biologically active PDGF.
Human foreskin fibroblasts are grown from explants of newborn foreskin. NIH/3T3 cells were obtained from S. Aaronson (NCI). Cells are cultured in Dulbecco's modified Eagle's medium (DMEM) supplemented with 10% fetal bovine serum at 37° C. in an atmosphere of 10% CO2 and 90% air.
Cells are grown in 48-well plates to confluence and used for assay 3-4 days later. Different monomeric forms or fragments of PDGF monomers are added to the media, and after 18 hours 10 .xi.g PDGF AA dimer, AB dimer, or BB dimer and 2 .xi.Ci/ml ^3 H-thymidine are added. The cells are incubated an additional 2 hours and washed at 4° C. three times with phosphate-buffered saline (PBS) and five times with 5% trichloroacetic acid (TCA). TCA-insoluble materials are solubilized in 0.1N NaOH/0.1% SDS. The amount of incorporated ^3 H-thymidine is determined with a Beckman liquid scintillation counter.

Q: With “A: Intact recombinant PDGF A chain monomer from E. coli, Cys residues pyridylethylated to prevent dimerization” as the substance, how does the “inhibition of the proliferative effect of BB dimer (in words)” value (PDGF BB dimer as stimulus) read?
A: inhibit the proliferative effect of BB dimer

Q: And the IC50 (inhibition of PDGF dimer-induced 3H-thymidine incorporation, antagonist added 18 hours before PDGF dimer and 3H-thymidine, read-out: HALF-MAX INHIBITION)?
A: 100 nM
